Assay results from patent US5080884A, “Hydrocarbylphenyl diaminodithiol radionuclide complexes and their use in imaging” (Medi-Physics, Inc., priority 1991, dated 1992).

Tests used:
[1] = Electrophoresis of Tc-99m complex (NaH2PO4, pH 4.5); assay type: physicochemical; conditions: 0.05 M NaH2PO4, pH 4.5, 300 volts, 30 min
[2] = Biological distribution of Tc-99m complexes in rats (pentobarbital anesthesia); assay type: in vivo, Female Sprague-Dawley rats; conditions: average of 2 rats; for Blood, % Injected Dose/Gram Tissue / Brain, % Injected Dose/Gram Tissue / Heart, % Injected Dose/Gram Tissue: pentobarbital anesthesia; for Brain:Blood / Heart:Blood: ratio
Experimental: Distribution of the Tc-99m labeled compounds was evaluated in rats. Female Sprague-Dawley rats weighing 140 to 220 g (average 170 g) were anesthetized with sodium pentobarbital and were injected in a tail vein with from 0.05 to 10 mCi of the Tc-99m labeled complex in a volume of 0.2 to 0.5 ml. At least two rats were injected for each time point.
The animals were sacrificed at 5 and 30 minutes after injection and selected organs were removed; the tails were discharged to avoid interference from the injection site. The radioactivity in each organ was measured at a standard geometry with a […] sodium iodide scintillation detector adjusted for the 140 KeV emission of Tc-99m. The organs were also weighed to one hundredth of a gram and the activity was calculated as a percent of administered dose per gram.

[3] = 5 min after i.v. (tail vein) injection
[4] = 30 min after i.v. (tail vein) injection

Substance: Tc-99m complex of 2-(2-Butylthio-2-methylpropylamino)-1-(2-mercapto-2-methylpropylamino)-3-methylbenzene [Example 53]
- Electrophoresis [1]: neutral
- Blood, % Injected Dose/Gram Tissue [2, 3]: 0.76 % Injected Dose/Gram Tissue
- Brain, % Injected Dose/Gram Tissue [2, 3]: 0.29 % Injected Dose/Gram Tissue
- Heart, % Injected Dose/Gram Tissue [2, 3]: 1.58 % Injected Dose/Gram Tissue
- Blood, % Injected Dose/Gram Tissue [2, 4]: 0.41 % Injected Dose/Gram Tissue
- Brain, % Injected Dose/Gram Tissue [2, 4]: 0.29 % Injected Dose/Gram Tissue
- Heart, % Injected Dose/Gram Tissue [2, 4]: 0.85 % Injected Dose/Gram Tissue
- Brain:Blood ([2]; 5 min after i.v. injection): 0.38
- Heart:Blood ([2]; 5 min after i.v. injection): 2.06
- Brain:Blood ([2]; 30 min after i.v. injection): 0.71
- Heart:Blood ([2]; 30 min after i.v. injection): 2.09
